From article PMC10065799, “High-throughput profiling of sequence recognition by tyrosine kinases and SH2 domains using bacterial peptide display” (eLife, 2023)
Like-named read-outs stand apart in the source and are kept apart here.

What was measured:
Test in all cases: pTyr-Var library bacterial peptide display kinase screen (enrichment scores)
[1] = target: T1, c-Abl kinase domain (Mus musculus, UniProt P00520); assay type: biochemical;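 note: log2 fold change in enrichment of variant over reference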
T1 sequence (P00520 242-493 limits assumed): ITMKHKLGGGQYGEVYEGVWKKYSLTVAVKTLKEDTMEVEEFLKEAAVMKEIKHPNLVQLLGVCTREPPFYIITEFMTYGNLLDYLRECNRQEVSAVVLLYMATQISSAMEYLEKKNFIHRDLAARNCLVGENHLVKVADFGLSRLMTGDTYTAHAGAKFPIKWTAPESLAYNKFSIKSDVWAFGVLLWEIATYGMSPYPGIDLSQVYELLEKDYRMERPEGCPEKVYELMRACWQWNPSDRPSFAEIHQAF

[2] = tested on: Fer kinase domain; assay type: biochemical, mouse; conditions: sheet "Fer";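 note: log2 fold change in enrichment of variant over reference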
[3] = target: c-Src kinase domain (Homo sapiens, UniProt P12931); assay type: biochemical;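 note: log2 fold change in enrichment of variant over reference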
[4] = tested on: EPHB1 kinase domain; assay type: biochemical, human; conditions: for Screen (variant relative to reference peptide, measured in the pTyr-Var library screen): sheet "EPHB1", variant seq vs reference seq, bacterial peptide display enrichment; for Screen: sheet EPHB1, effect of the variant peptide relative to its reference peptide in the pTyr-Var library screen (enrichment scores)
[5] = sheet "Abl", effect of variant peptide relative to its reference peptide in pTyr-Var library screen (enrichment)
[6] = fig5-data2, sheet "Abl", Screen for the variant/reference peptide pair, pTyr-Var library
[7] = value of the variant peptide against its reference peptide in the pTyr-Var library screen with Fer
[8] = variant peptide relative to its reference peptide, pTyr-Var library screen enrichment
[9] = sheet "Src", variant peptide versus its reference peptide in the pTyr-Var library screen
[10] = sheet "Src", effect of the variant peptide relative to its reference peptide in the pTyr-Var library screen

## ADRNHYRRFRR [YBX1_Y145_P149R_YF]
[1]; [5]
  Screen: -2.647

## DENWFYTQAAS [RPS19_Y54_R56Q]
[1]; [6]
  Screen: 0.05995

## EFSNQYKATIG [RAB7A_Y37_K32E]
[1]; [6]
  Screen: 1.976

## VDEVLYEDSSA [MTHFS_Y197_T202A]
[2]; [7]
  Screen: -0.2341

## KRAAIYNPVIF [RHO_Y301_S297R_YF]
[2]; [8]
  Screen: -0.6585
[3]; [9]
  Screen: -1.114

## LLSVAYKNVVR [YWHAZ_Y48_G53R]
[1]; [5]
  Screen: 1.295

## AGIVVYNIIGW [MYH7_Y588_D587V]
[3]; [9]
  Screen: 2.236

## HLGNQYVNVMN [SLC3A1_Y461_R456H]
[4]
  Screen (variant relative to reference peptide, measured in the pTyr-Var library screen): -0.5071

## RSSGSYGGGGQ [HNRNPA1_Y341_P340S]
[4]
  Screen: 0.1057

## PAIFTYDEFKK [COL8A2_Y648_T645I_YF]
[2]; [7]
  Screen: -2.501
[3]; [10]
  Screen: 0.8342

## GSSKIYFLHAD [TLR5_Y108_P112A]
[3]; [9]
  Screen: -1.042

## ACLSLYGGFVE [MVD_Y164_R161L]
[3]; [10]
  Screen: -0.5782

## GFGGGYGGVLT [KRT19_Y65_A60G_YF]
[1]; [6]
  Screen: -0.6696

## NAGAFYVLSTL [FLVCR2_Y325_A326V]
[2]; [7]
  Screen: -2.63

## ISNATYKQIGL [FLT1_Y199_E201Q]
[1]; [6]
  Screen: -0.6358

## FLTQHYDAIPQ [ANG_Y38_K41I]
[2]; [7]
  Screen: 3.881

## KVPAIYGVGTR [CPS1_Y162_D165G]
[3]; [10]
  Screen: 1.669

## ETEMLYGSARR [PRC1_Y464_P468R]
[2]; [7]
  Screen: -2.34
[3]; [9]
  Screen: -0.8951

## PVGVLYEVKVF [PTS_Y128_K129E_YF]
[2]; [8]
  Screen: 1.639
[4]
  Screen: 0.4109

## LKRCQYVTKKV [ALDOA_Y204_E207K]
[4]
  Screen: -1.465

## AQMAMYFWEMS [TRPM4_Y577_G582S]
[3]; [9]
  Screen: -0.06271

## TQPSPYAVFLF [RPGRIP1_Y823_R827L_YF]
[2]; [8]
  Screen: -0.3535
[4]
  Screen: -0.3084
[3]; [9]
  Screen: -0.4188

## ELQGTYTSLQQ [KIF3C_Y574_R571Q]
[3]; [10]
  Screen: 1.278

## FRDALYKSMVD [PHEX_Y250_F252S_YF]
[1]; [6]
  Screen: 1.216

## VKMLPYTEVTR [GDI1_Y93_L92P]
[4]
  Screen: -2.754

## FIGVTYKNKED [PDGFRA_Y993_E996K_YF]
[1]; [6]
  Screen: -0.7207

## FKEVVYQAMEE [TACC3_Y684_E680K]
[3]; [9]
  Screen: -0.2069

## HLLRIYFDITD [MMP27_Y307_W304L_YF]
[4]
  Screen: 0.4409

## QRASDYFSQQM [GBP6_Y333_A331S_YF]
[4]
  Screen: 1.684

## DAAEDYAEGVC [DHODH_Y194_R199C]
[1]; [6]
  Screen: -0.7613

## MNKNAYHNVTT [ST3GAL6_Y306_A311T]
[1]; [5]
  Screen: -0.8996

## DDSNPYINVKL [MTHFD1_Y52_L51P]
[1]; [6]
  Screen: -0.8391

## DFPGIYSGFDD [POLR1C_Y33_N32I_YF]
[3]; [9]
  Screen: 3.694

## SGSFRYGSSFE [SELE_Y390_C394F]
[1]; [5]
  Screen: -0.02524

## IGVDSYSVCKR [RPS6KA3_Y433_G431D]
[1]; [6]
  Screen: 0.006002

## FQKNVYSEELR [LMNA_Y211_I210V]
[3]; [10]
  Screen: -1.452

## MFNPCYGLFEF [NEDD4L_Y680_Y679C_YF]
[2]; [7]
  Screen: -0.1579
[3]; [9]
  Screen: -0.1736

## RLAKRYLIWEC [SCN5A_Y694_Q692K]
[1]; [5]
  Screen: -1.185

## SKHHLYSDLQT [PTCHD1_Y84_R82H]
[2]; [7]
  Screen: 1.431

## MLEAPYVDRNS [F10_Y384_V382A]
[1]; [6]
  Screen: 1.1

## AKAFIYASHIV [ZNF573_Y229_G224A]
[2]; [8]
  Screen: 0.4356
[3]; sheet "Src", effect of the variant peptide against its reference peptide, seen in the pTyr-Var library screen
  Screen: 0.3183

## QDRTFYERVRT [SPEN_Y633_S635R_YF]
[2]; [8]
  Screen: -1.346

## PQAVTYAEVKH [LILRB4_Y360_K362E]
[4]
  Screen: 2.401
[3]; [10]
  Screen: 2.83

## FSQQTYFPVSN [ABCD1_Y180_R182P_YF]
[3]
  Screen: 1.076

## PSPTKYSLSPS [RANBP2_Y785_R784K]
[1]; [6]
  Screen: 1.871

## TVHPGYGFLSE [PCCA_Y143_A138T]
[1]; [6]
  Screen: 1.846

## NPQKSYFICLF [WAS_Y83_R86C_YF]
[1]; [5]
  Screen: 3.12

## VIIVLYFSLWK [SLC6A2_Y249_V245I]
[1]; [5]
  Screen: -0.9059

## QRRNVYFFSFL [PTEN_Y176_Y174N_YF]
[2]; [7]
  Screen: -1.418

## VFGVSYDEFRF [CFTR_Y512_I507V_YF]
[2]; [7]
  Screen: 0.375
[3]; [10]
  Screen: 0.2836

## SGEKPYKCSVC [ZNF543_Y283_E287V]
[1]; [5]
  Screen: 3.958

## GENTVYAQVFN [LY9_Y603_M602V]
[2]; [7]
  Screen: 0.3094
[4]
  Screen: 0.06415
[3]; [10]
  Screen: 1.086

## KKHIPYRQHKS [CSNK1G2_Y206_E208Q]
[2]; [7]
  Screen: 0.3167
[4]
  Screen: 0.2176

## AALSAYAPQRP [PTPRN2_Y249_A251P]
[1]; [6]
  Screen: -0.5816

## HITQVYGFFDE [PPP2CA_Y127_Q122H_YF]
[3]; [9]
  Screen: 0.5425

## RDLHTYIMPAH [PNMT_Y256_R254H]
[4]
  Screen: -2.793

## AATTAYSKPKQ [MAP3K7_Y405_R410Q]
[1]; [6]
  Screen: -0.9283

## SSTAMYSAAGR [PSMB1_Y8_P11A]
[1]; [6]
  Screen: -0.5664

## CTHDLYMFMRE [FGFR3_Y724_I726F]
[4]
  Screen: 0.1536
[3]; [10]
  Screen: 0.09652

## SSFDTYHLSRE [KIR3DL2_Y253_I252T_YF]
[3]; [10]
  Screen: -1.121

## SEKISYVFMKR [SSX7_Y48_L43S_YF]
[4]
  Screen (variant relative to reference peptide, measured in the pTyr-Var library screen): -1.247

## ADLVQYFMEHH [PTPN11_Y80_E76D_YF]
[1]; [6]
  Screen: 0.02377

## LLASGYDSPIN [ABLIM1_Y638_R637G]
[4]
  Screen: -0.7648

## GFFDLYGGEKF [PTPN11_Y66_D61G_YF]
[3]; [9]
  Screen: -0.05122

## LVLIKYLPEWT [PSEN1_Y240_F237L]
[1]; [6]
  Screen: 1.753

## AMGPVYQAAAL [HYOU1_Y421_A419P]
[2]; [7]
  Screen: 1.97
[3]; [10]
  Screen: 0.5389

## VVSLFYGTALF [OR10C1_Y251_M246V]
[3]; [9]
  Screen: -0.3109

## DLQDEYDFKRK [STAT1_Y170_C174R]
[1]; [5]
  Screen: -1.312

## FRQNGYIPGSN [PCDHGB2_Y895_V894G_YF]
[1]; [6]
  Screen: -0.7593

## LQKNIYSEELR [LMNA_Y211_F206L]
[4]
  Screen: 0.6923
[3]; [10]
  Screen: -1.475

## FVPSNYVAEDR [FRK_Y104_I100V_YF]
[1]; [6]
  Screen: 0.1639

## QTSSNYDDAMQ [ZNF281_Y531_I527T]
[1]; [5]
  Screen: -4.858

## GFEEAYSVSKK [PAFAH1B1_Y28_F31S_YF]
[3]; [9]
  Screen: -2.622

## QTEAPYRFIFM [PTPN11_Y511_Q510P_YF]
[2]; [7]
  Screen: 2.526

## PKDSAYVTWEP [TTN_Y20731_S20726P]
[2]; [8]
  Screen: 0.6125
[3]; [9]
  Screen: 0.3327

## TDTQLYGRFGS [ITGA2B_Y384_G380D]
[3]; [10]
  Screen: -0.04787

## TTPFNYSFIFK [RAB14_Y8_A4T_YF]
[4]
  Screen: 0.03762

## SSSNPYSTVTV [ACTN2_Y599_M604V]
[2]; [7]
  Screen: -0.1641
[3]; [10]
  Screen: -0.5875

## DPLLTYQFPPK [LMNA_Y481_R482Q]
[3]; [10]
  Screen: 1.304

## QMIETYFDFRV [NSMF_Y506_L511V]
[4]
  Screen: -0.6862
[3]; [9]
  Screen: -0.8869

## CSRCFYQLTKL [AR_Y858_R856C]
[2]; [7]
  Screen: 1.959

## LREKVYVSLEA [RXRA_Y397_A398V]
[3]; [9]
  Screen: -2.342

## KGSLPYSLILD [PKD1L2_Y406_N407S]
[3]; [9]
  Screen: 1.59

## QAIDEYEKWLE [MAP9_Y603_N601D]
[4]
  Screen: -0.2835

## VVKTVYSLQPS [KNSTRN_Y87_P92S]
[3]; [10]
  Screen: -0.2694

## VQVAFYTVMMN [SPATA17_Y84_M86V_YF]
[2]; [8]
  Screen: -1.379

## IATTIYSGDKI [UGGT2_Y823_A821T]
[3]; [9]
  Screen: -1.846

## ICGVSYDEFRF [CFTR_Y512_F508C_YF]
[2]; [7]
  Screen: -0.3864
[3]; [10]
  Screen: -0.6525

## TRDVNYGWIIH [MT-CYB_Y75_R80H]
[2]; [7]
  Screen: 3.39

## KDQGIYEDFVE [MYL6_Y86_T85I_YF]
[2]; [7]
  Screen: 1.02
[3]; [9]
  Screen: 1.232
